The numbers were not newly measured in article PMC9788431, “Combination of Docking-Based and Pharmacophore-Based Virtual Screening Identifies Novel Agonists That Target the Urotensin Receptor” (Molecules, 2022), which cites them from elsewhere.

Each structure is given as a SMILES string. Several values for one entry are separate records, joined by “and”; a condition that tells them apart may be missing. Equal values may be shown once.

For the series, the target named is T1, UT receptor (Homo sapiens, UniProt Q9UKP6).
T1 construct: SNAP-tag; expressed in transfected cells; host or cells: 293A8 (HEK293A stably transfected with the UT receptor); inferred, the calcium-assay paragraph names no cells
T1 sequence (Q9UKP6 1-389): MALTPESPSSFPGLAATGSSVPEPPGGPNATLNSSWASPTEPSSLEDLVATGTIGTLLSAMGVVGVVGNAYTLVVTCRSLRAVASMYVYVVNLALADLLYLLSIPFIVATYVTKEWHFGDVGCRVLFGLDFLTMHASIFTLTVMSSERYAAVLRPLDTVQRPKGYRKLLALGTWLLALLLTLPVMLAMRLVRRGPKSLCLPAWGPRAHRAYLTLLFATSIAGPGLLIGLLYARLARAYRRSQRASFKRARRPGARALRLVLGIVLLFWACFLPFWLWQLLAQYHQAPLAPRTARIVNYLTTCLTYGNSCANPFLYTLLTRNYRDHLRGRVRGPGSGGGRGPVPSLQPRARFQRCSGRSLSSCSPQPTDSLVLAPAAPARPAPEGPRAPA
Also noted: method as in ChEMBL database and others. Particulars: antagonist; Table S1 benchmarking ligands; ref ChEMBL database and others; cited from earlier work.

What is called IC50 is the point on the concentration scale where inhibition reaches its midpoint. On to `COc1ccc([C@@H](CCCNC(=O)c2cnoc2C)N2C(=O)c3cccc(N4CCN([C@H](C)c5ccccc5)CC4)c3C2=O)cc1OC` [CHEMBL568764], for which the IC50 was 760 nM. In the case of `CCN1CCN(c2cccc3c2CN([C@H](CCCN(C)S(=O)(=O)c2cccs2)c2ccc(OC)c(OC)c2)C3=O)CC1` [CHEMBL571535], the IC50 is 88 nM. For the compound `COc1ccc([C@@H](CCCN(C)S(=O)(=O)c2cccs2)N2Cc3c(cccc3N3CCN(C4CCC4)CC3)C2=O)cc1OC` [CHEMBL571537], the IC50 is 510 nM.

Consider `COc1ccc([C@@H](CCCN(C)S(=O)(=O)c2cccs2)N2Cc3c(cccc3N3CCN(C(C)C)CC3)C2=O)cc1OC` [CHEMBL578203], for which the IC50 was 500 nM.

In the case of `CCN1CCN(c2cccc3c2CN([C@H](CCCNS(=O)(=O)c2c[nH]cn2)c2ccc(OC)c(OC)c2)C3=O)CC1` [CHEMBL578207], the concentration for half-maximal inhibition (IC50) was 51 nM. Regarding `COc1cc2c(cc1OC)C(CCc1cc(F)ccc1F)N(CCNC(=O)Nc1cc(C)nc3ccccc13)CC2` (stereo not drawn) [CHEMBL1163360], the half-maximal inhibitory concentration (IC50) is 67 nM. Take `Cc1cc(NC(=O)NCCN2CCC(O)(Cc3ccccc3)CC2)c2ccccc2n1` [CHEMBL1164032]: the IC50 was 3.6 nM.

For the compound `COc1cc(Br)c(S(=O)(=O)Nc2ccc(Cl)c(O[C@@H]3CCN(C)C3)c2)cc1OC` [CHEMBL2348501], the IC50 was 43 nM. Turning to `COc1cc(Br)c([S+]([O-])Cc2ccc(Cl)c(O[C@@H]3CCN(C)C3)c2)cc1OC` (stereo partly drawn) [CHEMBL2348504], the IC50 is 245 nM. For `COc1cc(Br)c(SCc2ccc(Cl)c(O[C@@H]3CCN(C)C3)c2)cc1OC` [CHEMBL2348505], the IC50 is 440 nM. For the compound `COc1cc(Br)c(CNc2ccc(C(F)(F)F)c(O[C@H]3CCN(C)C3)c2)cc1OC` [CHEMBL2348511], the half-maximal inhibitory concentration (IC50) was 191 nM. On to `CN1CC[C@H](Oc2cc(NCc3ccccc3Br)ccc2C(F)(F)F)C1` [CHEMBL2348514], for which the half-inhibitory concentration (IC50) is 821 nM. On to `CN(C)CCOc1cc(NCc2ccccc2C(F)(F)F)ccc1Cl` [CHEMBL2348515], for which the IC50 was 520 nM and 765 nM.

For `COc1cccc(CNc2ccc(C(F)(F)F)c(O[C@H]3CCN(C)C3)c2)c1` [CHEMBL2348517], the IC50 was 691 nM. With `CN1CC[C@H](Oc2cc(NCc3c(Br)ccc4c3OCO4)ccc2C(F)(F)F)C1` [CHEMBL2348518], the IC50 was 620 nM.

For `COc1cc(Br)c(S(=O)(=O)Nc2ccc(C(F)(F)F)c(OCCN(C)C)c2)cc1OC` [CHEMBL2348523], the IC50 is 100 nM.

For the compound `COc1cc(Br)c(S(=O)(=O)Nc2ccc(C(F)(F)F)c(OCCN3CCN(C)CC3)c2)cc1OC` [CHEMBL2348527], the concentration for half-maximal inhibition (IC50) was 840 nM. For `CC(C)[C@H](NC(=O)[C@@H]1CSSC[C@H](NC(=O)[C@H](C)N)C(=O)N[C@@H](Cc2ccccc2)C(=O)N[C@@H]2Cc3c([nH]c4ccccc34)CN(C2=O)[C@@H](CCCCN)C(=O)N[C@@H](Cc2ccc(O)cc2)C(=O)N1)C(=O)O` [CHEMBL3104461], the IC50 is 60 nM. With `CC(C)[C@H](NC(=O)[C@@H]1CSSC[C@H](NC(=O)[C@H](C)N)C(=O)N[C@@H](Cc2ccccc2)C(=O)N[C@@H](c2ccccc2)C(=O)N[C@@H](CCCCN)C(=O)N[C@@H](Cc2ccc(O)cc2)C(=O)N1)C(=O)O` [CHEMBL3104462], the IC50 was 29.5 nM. Take `CC(C)[C@H](NC(=O)[C@@H]1CSSC[C@H](NC(=O)[C@H](C)N)C(=O)N[C@@H](Cc2ccccc2)C(=O)N[C@H](c2ccccc2)C(=O)N[C@@H](CCCCN)C(=O)N[C@@H](Cc2ccc(O)cc2)C(=O)N1)C(=O)O` [CHEMBL3104463]: the IC50 was 27.5 nM. `CC(C)[C@H](NC(=O)[C@@H]1CSSC[C@H](NC(=O)[C@H](C)N)C(=O)N[C@@H](Cc2ccccc2)C(=O)N2CCc3ccccc3[C@H]2C(=O)N[C@@H](CCCCN)C(=O)N[C@@H](Cc2ccc(O)cc2)C(=O)N1)C(=O)O` [CHEMBL3104464]: the IC50 was 10 nM. As for `CC(C)[C@H](NC(=O)[C@@H]1CSSC[C@H](NC(=O)[C@H](C)N)C(=O)N[C@@H](Cc2ccccc2)C(=O)N2CCc3ccccc3[C@@H]2C(=O)N[C@@H](CCCCN)C(=O)N[C@@H](Cc2ccc(O)cc2)C(=O)N1)C(=O)O` [CHEMBL3104465], the IC50 is 21 nM. In the case of `CC(C)[C@H](NC(=O)[C@@H]1CSSC[C@H](NC(=O)[C@H](C)N)C(=O)N[C@@H](Cc2ccccc2)C(=O)N2Cc3ccccc3C[C@@H]2C(=O)N[C@@H](CCCCN)C(=O)N[C@@H](Cc2ccc(O)cc2)C(=O)N1)C(=O)O` [CHEMBL3104467], the IC50 is 88 nM. In the case of `CC(C)[C@H](NC(=O)[C@@H]1CSSC[C@H](NC(=O)[C@H](C)N)C(=O)N[C@@H](Cc2ccccc2)C(=O)N[C@@H](Cc2c[nH]c3ccccc23)C(=O)N[C@@H](CCCCN)C(=O)N[C@@H](Cc2ccc(O)cc2)C(=O)N1)C(=O)O` [CHEMBL3104471], the IC50 is 12 nM. Turning to `CC(C)[C@H](NC(=O)[C@@H]1CSSC[C@H](NC(=O)[C@H](C)N)C(=O)N[C@@H](Cc2ccccc2)C(=O)N[C@@H](Cc2cccc3ccccc23)C(=O)N[C@@H](CCCCN)C(=O)N[C@@H](Cc2ccc(O)cc2)C(=O)N1)C(=O)O` [CHEMBL3104637], the IC50 was 17 nM. With `CC(C)[C@H](NC(=O)[C@@H]1CSSC[C@H](NC(=O)[C@H](C)N)C(=O)N[C@@H](Cc2ccccc2)C(=O)N[C@H](Cc2cccc3ccccc23)C(=O)N[C@@H](CCCCN)C(=O)N[C@@H](Cc2ccc(O)cc2)C(=O)N1)C(=O)O` [CHEMBL3104638], the IC50 was 46 nM. For the compound `CC(C)[C@H](NC(=O)[C@@H]1CSSC[C@H](NC(=O)[C@H](C)N)C(=O)N[C@@H](Cc2ccccc2)C(=O)N[C@@H](Cc2ccc(I)cc2)C(=O)N[C@@H](CCCCN)C(=O)N[C@@H](Cc2ccc(O)cc2)C(=O)N1)C(=O)O` [CHEMBL3104639], the IC50 is 58 nM. `CC(C)[C@H](NC(=O)[C@@H]1CSSC[C@H](NC(=O)[C@H](C)N)C(=O)N[C@@H](Cc2ccccc2)C(=O)N[C@@H](C(c2ccccc2)c2ccccc2)C(=O)N[C@@H](CCCCN)C(=O)N[C@@H](Cc2ccc(O)cc2)C(=O)N1)C(=O)O` [CHEMBL3104643]: the 50% inhibitory concentration (IC50) is 277 nM.

For the compound `Cn1ccc2c(NC(=O)NCCN3CCC(O)(Cc4ccccc4)CC3)ccnc21` [CHEMBL3358667], the IC50 was 160 nM. As to `O=C(NCCN1CCC(O)(Cc2ccccc2)CC1)Nc1ccnc2ccoc12` [CHEMBL3358671], the IC50 is 450 nM.

Consider `O=C(NCCN1CCC(O)(Cc2ccccc2)CC1)Nc1ccnc2sccc12` [CHEMBL3358673], for which the half-maximal inhibitory concentration (IC50) is 930 nM. On to `Cc1cc2nccc(NC(=O)NCCN3CCC(O)(Cc4ccccc4)CC3)c2s1` [CHEMBL3358674], for which the IC50 is 78 nM. Take `Cc1cc(NC(=O)NCCN2CCC(O)(Cc3ccccc3)CC2)c2sccc2n1` [CHEMBL3358679]: the IC50 is 26 nM. As for `CCc1cc(NC(=O)NCCN2CCC(O)(Cc3ccccc3)CC2)c2sccc2n1` [CHEMBL3358680], the IC50 is 60 nM. In the case of `Cc1ccccc1CC1(O)CCN(CCNC(=O)Nc2ccnc3ccsc23)CC1` [CHEMBL3358682], the IC50 was 20 nM. On to `Cc1cccc(CC2(O)CCN(CCNC(=O)Nc3ccnc4ccsc34)CC2)c1` [CHEMBL3358683], for which the IC50 was 140 nM. Regarding `Cc1ccc(CC2(O)CCN(CCNC(=O)Nc3ccnc4ccsc34)CC2)cc1` [CHEMBL3358684], the IC50 is 190 nM. Take `O=C(NCCN1CCC(O)(Cc2ccccc2Br)CC1)Nc1ccnc2ccsc12` [CHEMBL3358685]: the IC50 is 20 nM. Consider `O=C(NCCN1CCC(O)(Cc2cccc(Br)c2)CC1)Nc1ccnc2ccsc12` [CHEMBL3358686], for which the IC50 was 42 nM.
